Entries after “also recorded” stand apart in the source; their conditions may differ.
What was measured:
Assay type in all cases: in vivo, Spodoptera exigua
S. exigua = assay: synergistic/joint toxicity of avocadofuran and triolein combinations
Description: The treatments were as follows: Control, 2-(pentadecyl)furan, 2-(heptadecyl)furan, triolein, individually, and 2-(pentadecyl)furan combined with 2-(heptadecyl)furan and triolein, 2-(pentadecyl)furan combined with triolein, and 2-(heptadecyl)furan combined with triolein. Because the combined LC25 s for both avocadofurans exceed their LC50 values, a concentration for each was adjusted so that when added it would approximate the value of the avocadofurans LC50 (see Table 2). These concentrations were used whenever both avocadofurans were combined in the same treatment. Treatments were replicated four times, with 15 larvae per replicate to a total of 60 larvae/treatment.
Joint effects were determined by testing all combinations of LC25 s (estimated from probit lines shown in Table 1) of the three compounds for toxicity to S. exigua. The treatments were: control, 2-(pentadecyl)furan, 2-(heptadecyl)furan, triolein, 2-(pentadecyl)furan+triolein, 2-(heptadecyl)furan+triolein, and 2-(pentadecyl)furan+2-(heptadecyl)furan+triolein. Because the combined LC25 s for both avocadofurans exceeded their LC50 values (due to a steep slope of their LC lines), a concentration for each was used so that when added together it would approximate the value of the avocadofurans LC50 (Table 1). These concentrations were used whenever both avocadofurans were combined in the same treatment.
Treatments were replicated four times, with 15 larvae per replicate (total of 60 larvae/treatment). Dietary treatment preparations and bioassay procedures were conducted as described in Example 4. For each diet treatment, 9-d larval instar and weight, pupal weights, times to pupation, and larval mortality were recorded.

neonate S. exigua = assay: individual toxicity of avocadofurans and triolein in artificial diet
Method: In this study, individual activity of avocadofurans was investigated quantitatively. For this purpose, eight concentrations of the avocadofurans (1) and (4) and triolein (8) were tested. Results are seen in FIG. 6.
Following pilot studies, eight concentrations of each were tested: 0, 0.5, 1, 1.5, 2, 2.5, 3, and 3.5 μmoles g^~1 diet. Also, five concentrations of triolein were tested: 0; 1,000; 2,000; 3,000; and 4,000 μg g^~1 diet. Because triolein was not compared to a structurally similar compound, a more standard dietary formulation of μg g-^1 was used rather than ^~ moles g^-1 in all triolein-treated bioassays.
Treated and control diet were prepared as described above. For each concentration the compounds were dissolved in 10 ml of Tween solution and mixed using an ultrasonic homogenizer. Untreated diet was added to make a total of 100 g and then vortexed for 3 mm. Control diet was prepared by mixing 10 ml of the Tween solution with 90 g of artificial diet to produce a final weight of 100 g. Control and treated diets were poured into 30 ml plastic cups. One neonate was placed in each cup and cups were held in an incubator. Fifteen larvae were tested at each concentration, and assays were replicated 4 times (total of 60 larvae/treatment). For each diet treatment, 9-d larval instar and weight, pupal weights, times to pupation, and larval mortality were recorded.
(§1) EC (effective concentration) values were calculated by subtracting the mean larval weight for each treatment from the mean weight of the controls, and dividing by the mean weight of the controls. LC (lethal concentration) values were obtained using probit analysis as described in Probit Analysis (1971) Cambridge University Press, Cambridge, UK. GI (growth index) and RGI (relative growth index) values were calculated as described in J. Chem. Ecol., 19:1109 (1993), but using an imax of 3 (the stage attained by most control larvae after 7 d). Statistical comparisons were conducted using SuperAnova Abacus Concept Inc., Berkeley, Calif. (1989).

S. exigua larvae = assay: growth inhibition and mortality of synthetic avocadofurans and triolein in diet bioassay; set-up: key to GI (growth index): growth index calculated per J. Chem. Ecol. 19:1109 (1993), imax = 3; details: for 7-d Instar / 7-d Larval Weight: mean ± SE
Method: S. exigua larvae were used in all experiments. Larvae were reared on artificial diet modified from U.S.D.A. Agric. Res. Serv., Prod. Res. Rep., 1208:1 (1969), and maintained at 28+2° C., 14:10; light:dark (L:D) photoperiod.
The colony was collected from Orange Co., Calif. and had new genetic material added within 12 months prior to the study. The age of the cohorts tested was standardized by using neonates within 12 hours of eclosion. All bioassays were maintained at 28+2° C. 75% relative humidity (RH), and at 14:10 (L:D) photoperiod with fluorescent lighting.
The insecticidal activity of the fractions was tested with artificial diet bioassays. Treated diets were prepared by transferring 750 μl of acetone solutions of each fraction (equivalent to 300 mg crude idioblast cell oil) into 50-ml polypropylene centrifuge tubes (Fisher, Pittsburgh Pa.), evaporating the acetone, adding 2 ml of 0.1% Tween-80 solution (Fisher), homogenizing with an ultrasonic homogenizer (Co le-Parmer, Chicago Ill.), and adding prepared diet to produce a final weight of 15 g containing the equivalent of 2% idioblast oil. The mixture was vortexed for 3 mm.
Control diet was prepared by mixing 2 ml of Tween solution and 13 g of artificial diet to produce a final weight of 15 g. Control and treated diets were poured into 24-well (15.9 mm diameter and 15.9 mm depth) bioassay trays (C-D International Inc., Pitman N.J.). One neonate was added per well, and trays were placed in an incubator under the previously described conditions. Twenty-four neonates were tested for each fraction and control. Mortality and larval weights were recorded after 7 days.
The effect of the synthetically produced avocado furan compounds (>95% purity) and commercially available triolein (Sigma, St. Louis, Mo.) were tested on larval growth and mortality of S exigua. Treated and control diet were prepared as previously described.
Six different compound concentrations, chosen on the basis of studies with the oil fractions, were evaluated for both 2-(pentadecyl)furan and 2-(heptadecyl)furan: 0 (control), 600, 750, 900, 1050, and 1200 μg/g. Also, six concentrations of triolein (subfraction 1-1-12) were tested: 0 (control), 7000, 8000, 9000, 10000, and 11000 μg/g.
Twenty-four neonates were used per treatment. Bioassays were conducted as described in Example 4, and replicated 4 times for each concentration (i.e., a total of 96 larvae were tested for each concentration). Larval weight, instar, and mortality were recorded after 7 days […].
as §1

[1] = lowest concentration vs controls

CCCCCCCCCCCCCCCc1ccco1 [2-(pentadecyl)furan (1), 2-(pentadecyl)furan]
Mortality (%) using LC25 (S. exigua; in vivo): 36.7% | Survival to pupation (S. exigua; in vivo): 63.3% | Weight, 9-d larvae (S. exigua; mean ± spread): 22.4 ± 2.9 mg | Weight, Pupae (S. exigua; mean ± spread): 104.3 ± 3.2 mg | Developmental times (S. exigua; neonate-pupa, in d (unit assumed)): 19.8 ± 0.7 | growth inhibition (FIG. 6A) (neonate S. exigua; 1.5 μmoles g^-1 or higher, 9 d): more than 50% | LC25 (95% FL) (neonate S. exigua; avocadofurans, larval stage): 1.76(1.55-1.93) μmoles g^-1 of diet | LC50 (95% FL) (neonate S. exigua; avocadofurans, larval stage): 2.24(2.08-2.39) μmoles g^-1 of diet | effect on pupal weight (FIG. 7) (neonate S. exigua; in words): significantly reduced | larval developmental time from neonate to pupa (FIG. 8) (neonate S. exigua; in words): significantly prolonged | Relative Growth Index (RGI) (FIG. 10) (neonate S. exigua; in words, increasing concentrations): decreased with increasing concentrations | LC50 (neonate S. exigua; larval stage): 2.2 μmoles g^-1 diet | concentration significantly reducing 9-day larval weight (FIG. 6A) (neonate S. exigua; [1]): ≥ 1.5 µmol/g | concentration significantly reducing pupal weight (FIG. 7A) (neonate S. exigua; [1]): ≥ 3 µmol/g | GI (growth index) (S. exigua larvae; 600 μg/g): 0.69 | percent reduction in larval weight vs control (S. exigua larvae; 600 μg/g): 72.89% | 7-d Instar (S. exigua larvae; 600 μg/g): 2.29 ± 0.07 | 7-d Larval Weight (S. exigua larvae; 600 μg/g): 8.50 ± 0.95 mg | GI (growth index) (S. exigua larvae; 750 μg/g): 0.55 | percent reduction in larval weight vs control (S. exigua larvae; 750 μg/g): 85.83% | 7-d Instar (S. exigua larvae; 750 μg/g): 2.04 ± 0.07 | 7-d Larval Weight (S. exigua larvae; 750 μg/g): 4.44 ± 0.45 mg | GI (growth index) (S. exigua larvae; 900 μg/g): 0.26 | percent reduction in larval weight vs control (S. exigua larvae; 900 μg/g): 90.35% | 7-d Instar (S. exigua larvae; 900 μg/g): 1.74 ± 0.07 | 7-d Larval Weight (S. exigua larvae; 900 μg/g): 3.03 ± 0.35 mg | GI (growth index) (S. exigua larvae; 1050 μg/g): 0.25 | percent reduction in larval weight vs control (S. exigua larvae; 1050 μg/g): 95.50% | 7-d Instar (S. exigua larvae; 1050 μg/g): 1.61 ± 0.07 | 7-d Larval Weight (S. exigua larvae; 1050 μg/g): 1.41 ± 0.15 mg | GI (growth index) (S. exigua larvae; 1200 μg/g): 0.15 | percent reduction in larval weight vs control (S. exigua larvae; 1200 μg/g): 95.78% | 7-d Instar (S. exigua larvae; 1200 μg/g): 1.56 ± 0.09 | 7-d Larval Weight (S. exigua larvae; 1200 μg/g): 1.32 ± 0.19 mg | mortality at 600 µg/g (S. exigua larvae; Spodoptera exigua, feed or water, 168 h, 600 μg/g, 7 d): 9.37% | mortality at 750 µg/g (S. exigua larvae; Spodoptera exigua, feed or water, 168 h, 750 μg/g, 7 d): 18.8% | mortality at 900 µg/g (S. exigua larvae; Spodoptera exigua, feed or water, 168 h, 900 μg/g, 7 d): 32.3% | mortality at 1050 µg/g (S. exigua larvae; Spodoptera exigua, feed or water, 168 h, 1050 μg/g, 7 d): 54.2% | mortality at 1200 µg/g (S. exigua larvae; Spodoptera exigua, feed or water, 168 h, 1200 μg/g, 7 d): 71.9% | reduction of larval development (S. exigua larvae; concentrations above 600 μg/g): > 70% | LC50 (95% FL) (S. exigua larvae; in diet): 1031 µg/g | inhibition of larval growth (S. exigua larvae; in words): significantly inhibited larval growth | comparative toxicity and growth inhibition (S. exigua larvae; in words, listed as 1): more toxic and growth inhibitory to S. exigua than either of the unsaturated compounds (2) and (6); also recorded: the most toxic | comparative toxicity and growth inhibition (S. exigua larvae; in words, listed as 2-(pentadecyl)furan): most active of the two major compounds from that subfraction | Relative Growth Index (RGI) vs log concentration regression (FIG. 4) (S. exigua larvae; log (μg/g)): y=5.66-1.79*log(x), r^2 =0.94

CCCCC/C=C\C/C=C\CCCCCCCc1ccco1 [2-(8Z,11Z-heptadecadienyl)furan]
inhibition of S. exigua growth compared to control larvae (S. exigua larvae; 1600 μg/g): 54.51% | mortality at 1600 µg/g (S. exigua larvae; Spodoptera exigua, feed or water, 1600 μg/g): < 5% | active concentration relative to the saturated compound (4) (S. exigua larvae; in vivo): twice as high as the saturated compound (4) | comparative toxicity and growth inhibition (S. exigua larvae; in words): of much lower toxicity than 2-(heptadecyl)furan (4) | concentration at which S. exigua growth is inhibited / compound active (S. exigua larvae; lowest active concentration, in diet): ≥ 1600 µg/g
